Where a name gives a salt, the structure may show the parent alone.
Experiment: Oral (sublingual) administration of 5 mg asenapine maleate to healthy adult men
Type: in vivo, human
Conditions: 5 mg asenapine maleate sublingual, healthy adult men (18)
Method: The N-desmethyl asenapine tends to cause adverse effects such as adverse effects on the cardiovascular system in comparison with asenapine. For example, in a case where 5 mg of asenapine maleate is orally administered (sublingual administration), the area under plasma concentration-time curve of the free asenapine for a period between 10 minutes and 72 hours (AUC0.17.72) can be 25,000 to 38,000 pg·hr/mL. In this case, N-desmethyl asenapine has an AUC0.17.72 of 10,000 to 17,000 pg·hr/mL, which is 40% or more of the […] of the free asenapine. In contrast, when approximately the same amount (4.8 mg) of asenapine is administrated using the patch of the present invention comprising the isopropyl palmitate in the adhesive agent layer, this makes it possible to sufficiently suppress the AUC of the asenapine metabolite while the free asenapine has an AUC equivalent to that in the case of the oral administration.
Furthermore, in a case where the patch obtained in Example 2 was administrated, the incidence proportion of adverse effects on the cardiovascular system in the AUC measurement test was 6%. […]

- AUC0.17.72 of the free asenapine (average value) (plasma, 10 minutes to 72 hours): 32,074 pg·hr/mL
Compound: CN1C[C@@H]2c3ccccc3Oc3ccc(Cl)cc3[C@H]2C1 (relative stereo) [asenapine maleate, trans-5-chloro-2-methyl-2,3,3a,12b-tetrahydro-1H-diben z[2,3:6,7]oxepino[4,5-c]pyrrole]
- incidence proportion of adverse effects on the cardiovascular system: 39%

Reference: patent US10814002B2, “Patch and method for producing the same” (HISAMITSU PHARMACEUTICAL CO., INC., priority 2012, dated 2020)
